Measurements taken from patent EP4467141A1, “PYRAZOLO-QUINOLINES AS SELECTIVE INHIBITORS OF GENOTOXIC STRESS-INDUCED IKK/NF- KB PATHWAYS FOR CANCER THERAPY” (Max-Delbrück-Centrum für Molekulare Medizin in der …, priority 2023, dated 2024).

What was measured:
U2-OS cells [1] = experiment: Cell viability assay; assay type: cell-based; details: for cell viability, etoposide co-treatment: 10 µM plus etoposide 50 µM, compared to etoposide alone; for cell viability, compound alone: 10 µM, 6, 24, and 48 hours, compared to DMSO
Experimental: (§1) Fig.4: MW01 and MW05 reduce cell viability and increase p53-mediated apoptosis upon etoposide co-treatment. (A) Representative light microscopy images of U2-OS cells following treatment with DMSO, MW01 (10 µM), MW05 (10 µM), or etoposide (50 µM), or co-treatment with MW01 (10 µM) and etoposide (50 µM), or MW05 (10 µM) and etoposide (50 µM) at 24 (left) and 48 hours (right). (B) Quantification of cell viability using CellTiter-Fluor Cell Viability Assay at 6, 24, and 48 hours. Treatment with 0.1% SDS 30 minutes prior to assay was used as positive cell death control. (ns: not significant; *, **, ***: p<0.05, p<0.01, p<0.001). (C) U2-OS cells were treated with DMSO, MW01 (10 µM), MW 05 (10 µM), or etoposide (50 µM), or co-treated with MW01 (10 µM) and etoposide (50 µM), or MW05 (10 µM) and etoposide (50 µM), as indicated. After 24 hours, whole cell lysates were prepared and analyzed by Western blotting for p65 phosphorylation (S536), caspase-3 and cleaved caspase-3 (left panel) and for p53 and γH2AX) (right panel). Vinculin was used as loading control.
1×10^4 cells per well were seeded in a 96-well plate and incubated overnight. The day after, cells were treated with 10 µM of compounds under investigation, 50 µM Etoposide or 10 µM Cisplatin, alone or in combination, for appropriate time points. DMSO and 10% of Triton-X100 were used as negative and positive control respectively. Luminescent staining was performed using CellTiter-Glo Luminescent Cell Viability Assay (Promega, G7570), adding in each well a volume of CellTiter-Glo reagent equal to the volume of cell culture medium present into the well. After 1h of incubation at 37°C, luminescence was read by BioTek Cytation 1 Cell Imaging Multimode Reader (Agilent).
We hypothesized that due to the important function of the DNA double strand-induced IKK-NF-κB pathway as in anti-apoptotic signalling (Stilmann et al., 2009), both MW01 and MW05 should sensitize cells to DNA damaging agents, and therefore support their potential use to potentiate genotoxic therapies. To characterize the effect of MW01 and MW05 on cell viability, we treated cells with both compounds alone or in combination with etoposide to induce DNA lesions (Fig. 4A). […] The same effect in cell viability reduction was confirmed for MW01 and MW05 in co-treatment with cisplatin, another widely used chemotherapeutic drug. To investigate the underlying molecular causes of this phenotype, we looked at markers of NF-κB and p53 activation, DNA damage, and apoptosis after single and co-treatment with MW01, MW05, and etoposide (Fig 4C). MW01 and MW05 abrogated etoposide-stimulated p65 phosphorylation, thereby validating our inhibition of IKK and NF-κB activity. […]

U2-OS cells [2] = experiment: Western blot of apoptosis and DNA damage markers (cleaved caspase-3, PARP1 cleavage, p53, γH2AX) in U2-OS cells; assay type: cell-based; details: for cleaved caspase-3, etoposide co-treatment: 10 µM plus etoposide 50 µM; for cleaved caspase-3, etoposide co-treatment / cleaved caspase-3, compound alone: 24 hours; for cleavage of PARP1, as apoptotic marker / cleaved caspase-3, compound alone: 10 µM; for cleavage of PARP1, as apoptotic marker: 8 hours after 10 Gy irradiation
Experimental: as §1
Fig.7: (A) Immunoprecipitation of IKKγ from HEK293 lysates pre-treated for 1 hour with DMSO, MW01 or MW05, then irradiated (IR, 20 Gy) and lysed. (B) Western blot analysis of MEF cells pre-treated with DMSO, MW01, MW05 or ATM inhibitor KU55933 and irradiated (IR, 20 Gy). Lysates were subjected to SDS-PAGE/WB. The specific IKKγ S85 band (lower band) was identified by induction following irradiation and by sensitivity to ATMi and λ- phosphatase (λ-PP) treatment. (C) Western blot analysis of U2os cells pre-treated for 1 hour with the indicated substances, irradiated (IR, 20 Gy) and whole cell lysates probed for poly(ADP)-ribose. (D) Western blot analysis of cytoplasmic and nuclear fractions from U2-OS cells for p-ATM (S 1981), after 1 hour pre-treatment with DMSO, MW01 (10 µM), or MW05 (10 µM) and 45 min following irradiation (IR, 20 Gy). PARP1 and LDHA are used as loading controls for nuclear and cytoplasmic fractions respectively. (E) mRNA expression analysis of CLK4 (top), 48 hours after transfection with siNC or siCLK4. mRNA expression analysis of NFKBIA (bottom), 48 hours after transfection with siNC or siCLK4. Values normalized to unstimulated siNC expressing cells. Statistical comparison was made between experimental conditions and paired siNC control. ns: not significant; **, ***, ****: p<0.01, p<0.001, p<0.0001. (F) Western blot analysis of p65 phosphorylation (S536) and CLK4 expression after transfection with siNC or siCLK4 in unstimulated, after 90 min irradiation (IR, 20 Gy), or after 20 min TNFα (10 ng/mL) conditions in U2-OS cells. Vinculin is used as loading control. Note that CLK4 and p-p65 were blotted on separate membranes, with respective vinculin blots underneath. (G) MW01 and MW05 are inhibitors of DNA damage-induced p65 nuclear translocation. U2-OS cells were pre-treated with DMSO, MW01 or MW05. Etoposide was added and after 2 hours cells were fixed and nuclei stained with DAPI. P65 and γH2AX were stained by immunofluorescence and images taken at a confocal Zeiss 710 LSM microscope with a 40x oil objective. (H) Western blot analysis of U2-OS cells 8 hours after 10 Gy irradiation following 1 hour pre-treatment with 10 µM DMSO, MW01, or MW05. Tubulin was used loading control. (I) mRNA expression analysis of BIRC3 in U2-OS cells 8 hours after 10 Gy irradiation following 1 hour pre-treatment with 10 µM DMSO, MW01, or MW05 and. Values were normalized to DMSO-treated unstimulated cells.
Cells were collected by scraping and lysed in Baeuerle lysis buffer supplemented with Protease (Thermo Fisher Scientific, 78429) and Phosphatase (Thermo Fisher Scientific, 78420) inhibitors after the appropriate treatment and time point. […]

Compound: COc1ccc2c(c1OC)c(=O)n1c3ccc(O)cc3c3ccnc2c31 [MW01, 5-Hydroxy-10,11-dimethoxy-9H-benzo[c]indolo[3,2,1-ij][1,5]naphthyridin-9-one]
- cell viability, etoposide co-treatment (U2-OS cells [1]): significantly reduced cell viability after 6 hours
- cell viability, compound alone (U2-OS cells [1]): slightly reduced cell viability
- cleaved caspase-3, etoposide co-treatment (U2-OS cells [2]): increased
- cleavage of PARP1, as apoptotic marker (U2-OS cells [2]): potentiated
- cleaved caspase-3, compound alone (U2-OS cells [2]): did not observe an increase

Compound: COc1ccc2cc3c(N)nn(C(=O)c4cccc(N(C)C)c4)c3nc2c1 [MW05, (3-Amino-7-methoxypyrazolo[3,4-b]quinolin-1-yl)-[3-(dimethylamino)phenyl]methanone]
- cell viability, etoposide co-treatment (U2-OS cells [1]): significant reduction after 24 hours
- cell viability, compound alone (U2-OS cells [1]): slightly reduced cell viability
- cleaved caspase-3, etoposide co-treatment (U2-OS cells [2]): increased
- cleavage of PARP1, as apoptotic marker (U2-OS cells [2]): potentiated
- cleaved caspase-3, compound alone (U2-OS cells [2]): did not observe an increase
